What was measured:
[1] = tested on: HL 60 cells; experiment: differentiation induction of HL 60 cells to macrophages (NBT reduction); type: cell-based, human; conditions: dose ratio test substance/calcitriol for comparable semi-maximum differentiation induction; 96 hours incubation
Procedure: The differentiation-stimulating action of calcitriol analogues is also detected quantitatively.
It is known in the literature [Mangelsdorf, D. J. et al., J. Cell. Biol. 98: 391 (1984)] that the treatment of human leukemia cells (promyelocyte cell line HL 60) in vitro with calcitriol induces the differentiation of cells to macrophages.
HL 60 cells are cultivated in tissue culture medium (RPMI 10% fetal calf serum) at 37° C. in an atmosphere of 5% CO2 in air.
For substance testing, the cells are centrifuged off, and 2.0×10^5 cells/ml in phenol red-free tissue culture medium is taken up. The test substances are dissolved in ethanol and diluted with tissue culture medium without phenol red to the desired concentration. The dilution stages are mixed with the cell suspension at a ratio of 1:10, and 100 μl each of this cell suspension that is mixed with substance is pipetted into an indentation of a 96-hole plate. For control, a cell suspension is mixed analogously with the solvent.
After incubation for 96 hours at 37° C. in 5% CO2 in air, 100 μl of an NBT-TPA solution (nitro blue tetrazolium (NBT), final concentration in the batch of 1 mg/ml, tetradecanoyl phorbolmyristate-13-acetate (TPA), final concentration in the batch of 2×10^−7 mol/l) is pipetted into each indentation of the 96-hole plate in the cell suspension.
By incubation for 2 hours at 37° C. and 5% CO2 in air, NBT is reduced to insoluble formazan because of the intracellular oxygen radical release, stimulated by TPA, in the cells that are differentiated to macrophages.
To complete the reaction, the indentations of the 96-hole plate are suctioned off, and the cells are affixed to the bottom of the plate by adding methanol and dried after affixing. To dissolve the intracellular formazan crystals that are formed, 100 μl of potassium hydroxide (2 mol/l) and 100 μl of dimethyl sulfoxide are pipetted into each indentation and ultrasonically treated for 1 minute. The concentration of formazan is measured by spectrophotometry at 650 nm.
As a yardstick for the differentiation induction of HL 60 cells to macrophages, the concentration of formed formazan applies.

[2] = acute hypercalcemic action (serum-calcium) in rats; type: in vivo, rat; conditions: dose ratio test substance/calcitriol for comparable hypercalcemic action; one-time subcutaneous administration, male rats
Procedure: To determine the acute hypercalcemic action of various calcitriol derivatives, the test that is described below is carried out:
The action of control (solution base), reference substance (1,25-dihydroxy vitamin D3=calcitriol) and test substance is tested in each case after one-time subcutaneous administration in groups of 10 healthy male rats (140–170 g). During the testing time, the rats are kept in special cages to determine the excretion of water and mineral substances. Urine is collected in 2 fractions (0–16 hours and 16–22 hours). An oral dose of calcium (0.1 mmol of calcium in 6.5% alpha-hydroxypropylcellulose, 5 ml/animal) replaces at 1600 hours the calcium intake that is lacking by food deprivation. At the end of the test, the animals are killed by decapitation and exsanguinated to determine the serum-calcium values. For the primary screen test in vivo, an individual standard dose (200 μg/kg) is tested. For selected substances, the result is supported by establishing a dose-effect relation.
A hypercalcemic action is shown in serum-calcium level values that are higher than in the control.
The significance of differences between substance groups and controls and between test substance and reference substance are supported with suitable statistical processes.

[3] = metabolic stability in liver homogenate; type: in vitro ADME; conditions: half-life in the liver homogenate (rat)
Procedure: To determine the metabolic stability, the test substance is incubated with tissue homogenate (from the rat liver) in the presence of buffer systems. The drop in starting concentration is tracked as a function of time. After a certain time, the incubation is stopped, and the unaltered test substance is extracted from the homogenate (diethyl ether), concentrated by evaporation under nitrogen, isolated via HPLC (mobile solvent: acetonitrile/water) and detected using UV-absorption.

[4] = target: T1, calcitriol receptor (Sus scrofa, UniProt A3RGC1); experiment: calcitriol-receptor test (competition with 3H-calcitriol); conditions: competition factor = concentration of test substance / concentration of calcitriol at 50% competition; protein extract from intestines of juvenile pigs
T1 sequence (A3RGC1 1-427): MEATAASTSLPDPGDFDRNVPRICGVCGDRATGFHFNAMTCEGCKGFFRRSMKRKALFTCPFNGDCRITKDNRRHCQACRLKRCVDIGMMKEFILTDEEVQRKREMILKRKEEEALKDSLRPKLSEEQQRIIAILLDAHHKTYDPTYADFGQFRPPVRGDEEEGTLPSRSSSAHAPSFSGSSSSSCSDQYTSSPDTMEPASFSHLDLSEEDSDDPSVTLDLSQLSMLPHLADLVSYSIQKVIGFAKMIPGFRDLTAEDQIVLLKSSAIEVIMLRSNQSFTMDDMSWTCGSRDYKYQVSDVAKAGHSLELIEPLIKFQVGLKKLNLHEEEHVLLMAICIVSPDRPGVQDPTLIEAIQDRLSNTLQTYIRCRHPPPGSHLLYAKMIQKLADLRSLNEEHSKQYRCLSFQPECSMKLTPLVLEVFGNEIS
Procedure: The vitamin D activity of the substances according to the invention is determined with the aid of the calcitriol-receptor test. It is carried out using a protein extract from the intestines of juvenile pigs.
Then, the samples are centrifuged at 10,000 g for 5 minutes at 4° C. The supernatant is decanted and measured in a β-counter after 1 hour of equilibration in Picofluor 15™.
The competition curves that are obtained at various concentrations of test substance as well as of reference substance (unlabeled calcitriol) at constant concentration of the reference substance (^3H-calcitriol) are placed in relation to one another, and a competition factor (KF) is determined.
It is defined as a quotient of the concentrations of the respective test substance and the reference substance, which are necessary for 50% competition:

Row | DR Ca [2] | T½ [3] [h] | KF [4] | half-life ([3]; read-out: T½) [h] | Molecule | DR HL 60 [1]
1 | >>30 | 1.67 | 20 | – | C=C1/C(=C\C=C2/CCC[C@]3(C)[C@@H]([C@H](C)/C=C/[C@@H](O)C4(CCCCCCC)CC4)CC[C@@H]23)C[C@@H](O)C[C@@H]1O [Compound 236b, (5Z,7E,22E)-(1S,3R,24R)-25-heptyl-26,27-cyclo-9,10-secocholesta-5,7,10(19),22-tetraene-1,3,24-triol] | 4
2 | 50 | – | 1 | 0.667 | C=C1/C(=C\C=C2/CCC[C@]3(C)[C@@H]([C@H](C)/C=C/[C@@H](O)C4CC4)CC[C@@H]23)C[C@@H](O)C[C@@H]1O [calcipotriol, (5Z,7E,22E)-(1S,3R,24S)-26,27-Cyclo-9,10-secocholesta-5,7,10(19),22-tetraene-1,3,24-triol, reference compound] | 1

More lines, now with the values behind:

Row | Molecule | DR Ca [2] | T½ [3] [h] | KF [4] | half-life ([3]; read-out: T½) [h] | DR HL 60 [1]
3 | C=C1/C(=C\C=C2/CCC[C@]3(C)[C@@H]([C@H](C)/C=C/[C@H](O)C4(CCCC)CC4)CC[C@@H]23)C[C@@H](O)C[C@@H]1O [Compound 226a, (5Z,7E,22E)-(1S,3R,24S)-25-Butyl-26,27-cyclo-9,10-secocholesta-5,7,10(19),22-tetraene-1,3,24-triol] | >>1 | 1.33 | 4 | – | 2
4 | C=C1C(=CC=C2CCCC3(C)C2CCC3C(C)C=CC(O)C2(CCCC)CC2)CC(O)CC1O [Compound 226b, (5Z,7E,22E)-(1S,3R,24R)-25-butyl-26,27-cyclo-9,10-secocholesta-5,7,10(19),22-tetraene-1,3,24-triol] | >5 | 1.67 | 3 | – | 0.4
5 | C=C1/C(=C\C=C2/CCC[C@]3(C)[C@@H]([C@H](C)/C=C/[C@@H](O)C4(CCCCCC)CC4)CC[C@@H]23)C[C@@H](O)C[C@@H]1O [Compound 231b, (5Z,7E,22E)-(1S,3R,24R)-25-hexyl-26,27-cyclo-9,10-secocholesta-5,7,10(19),22-tetraene-1,3,24-triol] | >100 | 1.25 | 9 | – | 2
6 | [5Z,7E,22E,25(Z)]-(1S,3R,24S)-25-(1-octenyl)-26,27-cyclo-9,10-secocholesta-5,7,10(19),22-tetraene-1,3,24-triol [Compound 246b] | >>10 | 1.67 | 10 | – | 2
